From patent US9745280B2, “Compound or pharmaceutically acceptable salt thereof, and pharmaceutical composition containing same as active ingredient” (SNU R&DB FOUNDATION, priority 2012, dated 2017)
pIC50: −log10 of the molar value.

These compounds were tested on H1299 NSCLC (non-small cell lung cancer) cells (assay: Cancer cell growth inhibition (MTS)). Conditions: Homo sapiens, NCI-H1299, 48 hours, MTS reagent.
Format: cell-based
Experimental: To investigate the inhibitory effect of the compounds of Examples of the present invention on cancer cell growth, the following experiment was performed. Particularly, H1299 NSCLC (non-small cell lung cancer) cells were distributed in a 96-well plate at the density of 5×10^3 cells/well, followed by culture in a 37° C., 5% CO2 incubator for 24 hours. The compound of each example was dissolved in DMSO (10 nM, 100 nM, 1 μM, 10 μM), which was treated to each well. 48 hours later, cell growth was measured by using MTS reagent (3-(4,5-dimethylthiazole-2-yl)-5-(3-carboxymethoxyphenyl)-2-(4-sulfophenyl)-2H-tetrazolium). The experiment was performed in triplicate and the standard error of the analysis result was corrected.

Compared with `COc1cc2c(cc1OC)[C@@H]1C(=O)c3ccc(OC)c(CC=C(C)C)c3O[C@@H]1CO2` [Example 21, 2,3,9-Trimethoxy-8-(3-methyl-but-2-enyl)-6a,12a-dihydro-6H-chromeno[3,4-b]chromen-12-one], `COc1cc2c(cc1OC)[C@@H]1C(=O)c3ccc4c(c3O[C@@H]1CO2)C=CC(C)(C)O4` [Comparative Example 1 (Deguelin), (7aS,13aS)-9,10-Dimethoxy-3,3-dimethyl-13,13a-dihydro-3H-chromeno[3,4-b]pyrano[2,3-h]chromen-7(7aH)-one, reference compound] is 1.68 log units higher in pIC50: 5.28 for the first, 6.96 for the second. The second is the more potent here.

First: COc1cc2c(cc1OC)[C@@H]1[C@H](OC(C)=O)c3ccc4c(c3O[C@@H]1CO2)C=CC(C)(C)O4 [Example 13, (7S,7aS,13aS)-9,10-Dimethoxy-3,3-dimethyl-7,7a,13,13a-tetrahydro-3H-chromeno[3,4-b]pyrano[2,3,h]chromen-7-yl acetate]
Second: CCO[C@@H]1c2ccc3c(c2O[C@@H]2COc4cc(OC)c(OC)cc4[C@H]12)C=CC(C)(C)O3 [Example 9, (7S,7aR,3aS)-9,10-Dimethoxy-3,3-dimethyl-7-ethoxy-7,7a,13,13a-tetrahydro-3H-chromeno[3,4-b]pyrano[2,3-h]chromene]
The pIC50 of the first is 1.16 log units higher: 6.17 for the first, 5.01 for the second.

Going from `COc1cc2c(cc1OC)[C@@H]1/C(=N/O)c3ccc4c(c3O[C@@H]1CO2)C=CC(C)(C)O4` [Example 16, (7aR,13aS)-9,10-Dimethoxy-3,3-dimethyl-13,13a-dihydro-3H-chromeno[3,4-b]pyrano[2,3-h]chromen-7(7aH)-one oxime] to `CO/N=C1\c2ccc3c(c2O[C@@H]2COc4cc(OC)c(OC)cc4[C@H]12)C=CC(C)(C)O3` [Example 17, (7aR,13aS)-9,10-Dimethoxy-3,3-dimethyl-13,13a-dihydro-3H-chromeno[3,4-b]pyrano[2,3-h]chromen-7(7aH)-one O-methyloxime], the pIC50 falls from 6.52 to 5.37 (1.15 log units).

`COc1ccc(C(C)C(=O)c2ccc3c(c2OC)C=CC(C)(C)O3)cc1OC` (stereo not drawn) [Example 29, 2-(3,4-Dimethoxyphenyl)-1-(5-methoxy-2,2-dimethyl-2H-chromen-6-yl)propan-1-one] and `COc1ccc([C@H](C)C(=O)c2ccc3c(c2OC)C=CC(C)(C)O3)cc1OC` [Example 33, (S)-2-(3,4-Dimethoxyphenyl)-1-(5-methoxy-2,2-dimethyl-2H-chromen-6-yl)propan-1-one] are within 0.2 log units of each other in pIC50: 6.14 for the first, 6.31 for the second.

Compared with `COc1ccc(C2(C(=O)c3ccc4c(c3OC)C=CC(C)(C)O4)CC2)cc1OC` [Example 32], `COc1ccc([C@@H](C)C(=O)c2ccc3c(c2OC)C=CC(C)(C)O3)cc1OC` [Example 34, (R)-2-(3,4-Dimethoxyphenyl)-1-(5-methoxy-2,2-dimethyl-2H-chromen-6-yl)propan-1-one] is 1.90 log units higher in pIC50: 3.99 for the first, 5.89 for the second. The second is the more potent here.

`COc1ccc([C@H]2COc3c(ccc4c3C=CC(C)(C)O4)C2=O)cc1OC` [Example 25, (3S)-3-(3,4-Dimethoxyphenyl)-8,8-dimethyl-2,3-dihydro-4H,8H-pyrano[2,3-f]chromen-4-one] and `COc1cc2c(cc1OC)[C@@H]1Cc3ccc4c(c3O[C@@H]1CO2)C=CC(C)(C)O4` [Example 7, (7aS,13aS)-9,10-Dimethoxy-3,3-dimethyl-7,7a,13,13a-tetrahydro-3H-chromeno[3,4-b]pyrano[2,3-h]chromene] are within 0.2 log units of each other in pIC50: 5.35 for the first, 5.38 for the second.

First: COc1cc2c(cc1OC)[C@H](C(=O)c1ccc3c(c1)C=CC(C)(C)O3)CCO2 (stereo in doubt) [Example 26, (6,7-Dimethoxychroman-4-yl) (2,2-dimethyl-2H-chromen-6-yl)methanone]
Second: COc1ccc(CC(=O)c2ccc3c(c2)C=CC(C)(C)O3)cc1OC [Example 27, 2-(3,4-Dimethoxyphenyl)-1-(2,2-dimethyl-2H-chromen-6-yl)ethanone]
The pIC50 of the first is 0.58 log units lower: 5.42 for the first, 6.00 for the second.

`CCCO[C@@H]1c2ccc3c(c2O[C@@H]2COc4cc(OC)c(OC)cc4[C@H]12)C=CC(C)(C)O3` [Example 10, (7S,7aR,3aS)-9,10-Dimethoxy-3,3-dimethyl-7-propoxy-7,7a,13,13a-tetrahydro-3H-chromeno[3,4-b]pyrano[2,3-h]chromene] and `COc1cc2c(cc1OC)-c1c(oc3c4c(ccc3c1=O)OC(C)(C)C=C4)CO2` [Example 5, 9,10-Dimethoxy-3,3-dimethyl-3H-chromeno[3,4-b]pyrano[2,3-h]chromen-7-(13H)-one] are within 0.2 log units of each other in pIC50: 4.98 for the first, 5.00 for the second.

Compared with `COc1ccc(C(C)(C)C(=O)c2ccc3c(c2OC)C=CC(C)(C)O3)cc1OC` [Example 30, 2-(3,4-Dimethoxyphenyl)-1-(5-methoxy-2,2-dimethyl-2H-chromen-6-yl)-2-methylpropan-1-one], `CC1(C)C=Cc2c(ccc3c2O[C@@H]2COc4cc(O)c(O)cc4[C@@H]2C3=O)O1` [Example 4, (7aS,13aS)-13,13a-Dihydro-9,10-dihydroxy-3,3-dimethyl-3H-chromeno[3,4-b]pyrano[2,3-h]chromen-7(7aH)-one] is 0.52 log units higher in pIC50: 5.49 for the first, 6.01 for the second.

These compounds were tested on HIF-1α (assay: HIF-1α inhibitory activity, hypoxia-response element-luciferase in HRE-A549 cells). Conditions: HIF-1α inhibition, HRE-A549.
Format: cell-based
Experimental: HRE-A549 cells stably transfected with hypoxia-response element-luciferase construct were incubated in Dulbecco's modified Eagle's medium. Following overnight serum deprivation, the cells were treated with or without Deguelin or example compounds. After 1 h incubation, the cells were incubated in hypoxia-chamber for 24 h at 37° C. Luciferase activity was measured by adding luciferase assay reagent (Promega, Madison, Wis.).

`COc1c(C(=O)Cc2ccccc2F)ccc2c1C=CC(C)(C)O2` [Example 67, 2-(2-fluorophenyl)-1-(5-methoxy-2,2-dimethyl-2H-chromen-6-yl)ethanone] was tested, and the “times lower concentration compared to Comparative Example 1 (Deguelin)” value was 2.

Same assay, conditions: HRE-A549 cells, hypoxia-chamber 24 h, luciferase activity

Work on `COc1cc2c(cc1OC)[C@@H]1C(=O)c3ccc4c(c3O[C@@H]1CO2)C=CC(C)(C)O4` [Comparative Example 1 (Deguelin), (7aS,13aS)-9,10-Dimethoxy-3,3-dimethyl-13,13a-dihydro-3H-chromeno[3,4-b]pyrano[2,3-h]chromen-7(7aH)-one, reference compound] yielded a pIC50 of 6.78.

Same assay, conditions: HRE-A549 cells, hypoxia-chamber 24 h, luciferase activity; read-out: IC50

Going from `COc1c(C(=O)Cc2ccccc2O)ccc2c1C=CC(C)(C)O2` [Example 84, 2-(2-hydroxyphenyl)-1-(5-methoxy-2,2-dimethyl-2H-chromen-6-yl)ethanone] to `COc1c(C(=O)Cc2ccccc2F)ccc2c1C=CC(C)(C)O2` [Example 67, 2-(2-fluorophenyl)-1-(5-methoxy-2,2-dimethyl-2H-chromen-6-yl)ethanone], the pIC50 rises from 6.03 to 7.10 (1.07 log units). The second is the more potent here.

Compared with `COc1c(C(=O)Cc2cccc(O)c2)ccc2c1C=CC(C)(C)O2` [Example 83, 2-(3-hydroxyphenyl)-1-(5-methoxy-2,2-dimethyl-2H-chromen-6-yl)ethanone], `COc1c(C(=O)Cc2cccc(F)c2)ccc2c1C=CC(C)(C)O2` [Example 66, 2-(3-fluorophenyl)-1-(5-methoxy-2,2-dimethyl-2H-chromen-6-yl)ethanone] is 0.60 log units higher in pIC50: 5.84 for the first, 6.44 for the second. The second is the more potent here.

`COc1c(C(=O)Cc2ccc(F)cc2)ccc2c1C=CC(C)(C)O2` [Example 73, 2-(4-fluorophenyl)-1-(5-methoxy-2,2-dimethyl-2H-chromen-6-yl)ethanone] and `COc1c(C(=O)Cc2ccc(O)cc2)ccc2c1C=CC(C)(C)O2` [Example 85, 2-(4-hydroxyphenyl)-1-(5-methoxy-2,2-dimethyl-2H-chromen-6-yl)ethanone] are within 0.2 log units of each other in pIC50: 5.99 for the first, 6.10 for the second.

`COc1c(C(=O)Cc2ccccc2)ccc2c1C=CC(C)(C)O2` [Example 59, 1-(5-methoxy-2,2-dimethyl-2H-chromen-6-yl)-2-phenylethanone] and `COc1c(C(=O)Cc2cccc(Cl)c2)ccc2c1C=CC(C)(C)O2` [Example 68, 2-(3-chlorophenyl)-1-(5-methoxy-2,2-dimethyl-2H-chromen-6-yl)ethanone] are within 0.2 log units of each other in pIC50: 6.05 for the first, 6.21 for the second.

`COc1c(C(=O)Cc2ccc(C#N)cc2)ccc2c1C=CC(C)(C)O2` [Example 72, 4-(2-(5-methoxy-2,2-dimethyl-2H-chromen-6-yl)-2-oxoethyl)benzonitrile] and `COc1c(C(=O)Cc2ccc(Cl)cc2)ccc2c1C=CC(C)(C)O2` [Example 74, 2-(4-chlorophenyl)-1-(5-W methoxy-2,2-dimethyl-2H-chromen-6-yl)ethanone] are the same in pIC50: 5.90 for the first, 5.90 for the second.

Going from `COc1c(C(=O)Cc2ccccc2C(F)(F)F)ccc2c1C=CC(C)(C)O2` [Example 69, 1-(5-methoxy-2,2-dimethyl-2H-chromen-6-yl)-2-(2-(trifluoromethyl)phenyl)ethanone] to `COc1c(C(=O)Cc2ccccc2Cl)ccc2c1C=CC(C)(C)O2` [Example 64, 2-(2-chlorophenyl)-1-(5-methoxy-2,2-dimethyl-2H-chromen-6-yl)ethanone], the pIC50 rises from 5.67 to 6.48 (0.81 log units).

`COc1cccc(CC(=O)c2ccc3c(c2OC)C=CC(C)(C)O3)c1` [Example 76, 1-(5-methoxy-2,2-dimethyl-2H-chromen-6-yl)-2-(3-methoxyphenyl)ethanone] and `COc1c(C(=O)Cc2ccc(F)c(F)c2)ccc2c1C=CC(C)(C)O2` [Example 56, 2-(3,4-difluorophenyl)-1-(5-methoxy-2,2-dimethyl-2H-chromen-6-yl)ethanone] are within 0.2 log units of each other in pIC50: 6.08 for the first, 5.89 for the second.

Going from `COc1c(C(=O)Cc2ccc(C(F)(F)F)cc2)ccc2c1C=CC(C)(C)O2` [Example 75, 1-(5-methoxy-2,2-dimethyl-2H-chromen-6-yl)-2-(4-(trifluoromethyl)phenyl)ethanone] to `COc1c(C(=O)Cc2ccc3c(c2)OCCO3)ccc2c1C=CC(C)(C)O2` [Example 58, 2-(2,3-dihydrobenzo[b][1,4]dioxin-6-yl)-1-(5-methoxy-2,2-dimethyl-2H-chromen-6-yl)ethanone], the pIC50 falls from 6.22 to 5.87 (0.35 log units). The first is the more potent here.
